Results on 7 compounds are retold here after ChEMBL document CHEMBL1201862, “PubChem BioAssay data set” (2004).

Assay [1] can be described thus: activation of miR-122 Renilla sensor silencing – cell-based, Huh7 psiCHECK-miR122, Renilla luciferase, cherry-picked, dose response (AID 651956).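 Further: huh7 hepatoma cells stably carrying a psiCHECK-2 miR-122 sensor plasmid; renilla luciferase signal reporting endogenous miR-122 activity after 48 h compound exposure.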 The format is functional.
Assay [2] in a line: acridine orange displacement from DNA – biochemical, fluorescence polarization, cherry-pick, artefact control for RAD54 inhibitor project, dose response (AID 651673). The format is functional. A general note: Polarisation of emitted light reports the rotation of a fluorescent probe.
Assay [3] has as its target DNA repair and recombination protein RAD54-like (Homo sapiens, UniProt Q92698). In words: RAD54 Holliday junction migration blockers – biochemical, fluorescence, cherry-picked samples, dose series, confirmation (AID 651657). The format is functional.
Assay [4] deals with T1, DNA repair protein RAD52 homolog (Homo sapiens, UniProt P43351).
T1 sequence (P43351 whole entry): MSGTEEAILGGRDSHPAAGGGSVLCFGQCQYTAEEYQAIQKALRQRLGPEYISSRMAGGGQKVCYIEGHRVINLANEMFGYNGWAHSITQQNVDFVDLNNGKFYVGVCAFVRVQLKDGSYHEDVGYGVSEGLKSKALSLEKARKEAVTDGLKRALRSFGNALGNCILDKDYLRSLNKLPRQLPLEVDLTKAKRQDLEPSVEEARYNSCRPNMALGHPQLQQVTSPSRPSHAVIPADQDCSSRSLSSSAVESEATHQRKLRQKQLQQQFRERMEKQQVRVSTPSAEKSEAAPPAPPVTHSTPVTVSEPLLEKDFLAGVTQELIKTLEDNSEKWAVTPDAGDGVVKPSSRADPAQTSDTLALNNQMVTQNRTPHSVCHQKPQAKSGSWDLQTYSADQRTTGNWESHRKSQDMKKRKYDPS
In kind it is functional, biochemical.

In assay [5] the target is T2, Alkaline phosphatase, tissue-nonspecific isozyme (Homo sapiens, UniProt P05186).
T2 sequence (P05186 whole entry): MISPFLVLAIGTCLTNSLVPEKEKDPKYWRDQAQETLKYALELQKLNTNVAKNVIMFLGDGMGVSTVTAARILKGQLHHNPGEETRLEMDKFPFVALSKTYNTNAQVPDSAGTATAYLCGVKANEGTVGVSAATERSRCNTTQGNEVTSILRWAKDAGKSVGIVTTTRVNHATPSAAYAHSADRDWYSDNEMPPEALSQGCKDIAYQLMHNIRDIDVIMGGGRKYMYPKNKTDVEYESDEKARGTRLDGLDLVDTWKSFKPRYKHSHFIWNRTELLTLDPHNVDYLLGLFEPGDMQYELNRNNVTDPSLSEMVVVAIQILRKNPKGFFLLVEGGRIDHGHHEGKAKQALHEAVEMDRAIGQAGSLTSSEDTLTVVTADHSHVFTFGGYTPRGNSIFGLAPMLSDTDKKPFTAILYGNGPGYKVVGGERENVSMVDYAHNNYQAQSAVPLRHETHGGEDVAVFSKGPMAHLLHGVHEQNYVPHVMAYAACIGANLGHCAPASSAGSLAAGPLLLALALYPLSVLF
Nature of the assay: potency against alkaline phosphatase TNAP – biochemical, luminescent, dose response, SAR follow-up (AID 1056).

A further assay has as its target Albumin (Bos taurus, UniProt P02769). Nature of the assay: Counterscreen for inhibitors of T-cell receptor (TCR)-CD3 interaction: Fluorescence-based biochemical high throughput dose response assay to identify inhibitors of T-cell receptor (TCR)-CD3 interaction using a TAMRA-labeled BSA probe. The format is functional. On the technique in general: Counterscreens check selectivity or assay interference.

The target in assay [6] is T3, RNA-editing ligase 1, mitochondrial (Trypanosoma brucei brucei, UniProt P86926).
T3 sequence (P86926 whole entry): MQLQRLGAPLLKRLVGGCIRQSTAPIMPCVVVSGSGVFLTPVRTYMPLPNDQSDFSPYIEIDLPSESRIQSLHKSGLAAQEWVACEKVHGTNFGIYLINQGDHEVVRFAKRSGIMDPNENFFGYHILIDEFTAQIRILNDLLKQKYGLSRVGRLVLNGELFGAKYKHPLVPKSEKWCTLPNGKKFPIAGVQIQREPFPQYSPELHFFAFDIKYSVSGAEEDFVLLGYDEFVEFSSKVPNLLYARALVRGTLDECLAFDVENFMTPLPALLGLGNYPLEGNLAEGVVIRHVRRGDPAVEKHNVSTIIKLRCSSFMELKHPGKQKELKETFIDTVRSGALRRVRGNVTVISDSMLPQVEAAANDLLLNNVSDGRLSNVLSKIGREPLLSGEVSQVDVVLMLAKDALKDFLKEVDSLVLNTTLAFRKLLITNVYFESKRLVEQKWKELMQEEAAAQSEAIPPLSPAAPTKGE
Nature of the assay: inhibition of trypanosome RNA editing ligase – biochemical, fluorescence, Trypanosoma brucei, dose response (AID 1117295). The format is functional.

A short description of assay [7]: microbe, parasite or virus in culture. In kind it is functional. Conditions: Mycobacterium tuberculosis.
The target of assay [8] is T4, Scavenger receptor class B member 1 (Mus musculus, UniProt Q61009).
T4 sequence (Q61009 whole entry): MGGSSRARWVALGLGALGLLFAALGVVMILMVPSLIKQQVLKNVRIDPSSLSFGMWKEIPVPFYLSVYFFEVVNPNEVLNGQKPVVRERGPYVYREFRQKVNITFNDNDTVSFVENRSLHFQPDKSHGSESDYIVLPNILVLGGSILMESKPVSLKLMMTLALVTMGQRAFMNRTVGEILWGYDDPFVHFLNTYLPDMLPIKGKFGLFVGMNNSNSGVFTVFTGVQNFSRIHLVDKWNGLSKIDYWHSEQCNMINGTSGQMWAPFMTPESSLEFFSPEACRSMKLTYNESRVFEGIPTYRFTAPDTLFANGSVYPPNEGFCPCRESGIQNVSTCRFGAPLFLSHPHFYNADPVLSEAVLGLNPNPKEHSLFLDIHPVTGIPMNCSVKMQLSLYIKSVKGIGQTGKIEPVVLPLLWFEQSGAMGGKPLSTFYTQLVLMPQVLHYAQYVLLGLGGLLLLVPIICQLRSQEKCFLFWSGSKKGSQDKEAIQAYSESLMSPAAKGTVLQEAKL
Nature of the assay: mouse SR-BI DiI-HDL transfer blockers – ldlA[mSR-BI] CHO cells, fluorescence plate reader, dry powder, set 9, dose response (AID 623880). In kind it is functional, cell-based.

Assay [9] has as its target T4, Scavenger receptor class B member 1. In words: blockers of DiI-HDL lipid transfer via SR-BI – cell-based, ldlA[mSR-BI] CHO, DiI fluorescence, dry powder, set 10, dose response (AID 624029). The format is functional.
For assay [10], the target named is T5, Calpain-2 catalytic subunit (Sus scrofa, UniProt P43367).
T5 sequence (P43367 whole entry): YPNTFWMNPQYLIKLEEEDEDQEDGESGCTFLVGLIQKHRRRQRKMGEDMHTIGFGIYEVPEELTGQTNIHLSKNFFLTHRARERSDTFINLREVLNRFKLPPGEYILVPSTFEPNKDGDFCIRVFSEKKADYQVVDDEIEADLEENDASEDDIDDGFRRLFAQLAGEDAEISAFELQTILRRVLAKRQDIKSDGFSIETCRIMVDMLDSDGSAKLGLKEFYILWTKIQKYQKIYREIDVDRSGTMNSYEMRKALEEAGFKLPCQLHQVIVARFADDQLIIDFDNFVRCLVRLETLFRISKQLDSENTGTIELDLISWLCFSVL
Nature of the assay: m-calpain protease blockers, concentration series – biochemical, fluorogenic peptide substrate, dose response (AID 1420). The format is functional.

In assay [11] the target is Mitochondrial peptide methionine sulfoxide reductase (Bos taurus, UniProt P54149). The format is functional.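 Further: absorbance read-out, biochemical high-throughput dose-response screen for MsrA inhibitors, confirmatory; recombinant bovine MsrA coupled to E. coli TrxB with NADPH and selenocystamine; potency is for inhibitors of MsrA activity on DMSO substrate.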
The target of assay [12] is T6, Protein disulfide-isomerase (Homo sapiens, UniProt P07237). Nature of the assay: inhibition of PDI-driven insulin aggregation – biochemical, turbidity, absorbance, cherry-picked samples, dose response (AID 602350). In kind it is functional.
Assay [13] addresses T6, Protein disulfide-isomerase. Nature of the assay: inhibition of PDI-mediated insulin reduction – biochemical, turbidity, absorbance, cherry-picked samples, set 2, dose response (AID 624274). In kind it is functional.
A short description of assay [14]: A549 cell cytotoxicity, dose response, cytotoxicity control, plate reader, cherry-pick, antagonist series (AID 743412). The format is functional, cell-based.
Assay [15] can be described thus: toxicity toward HepG2 liver cells – cell-based, plate reader, cherry-pick, antagonist series, cytotoxicity control, dose response (AID 743416). In kind it is functional.
A short description of assay [16]: blockers of bursicon-stimulated LGR2 cAMP reporter – cell-based, HEK293, CRE-luciferase reporter, cherry pick, set 2, dose response (AID 743343).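 Further: transfected cells were stimulated with diluted bursicon conditioned medium after compound addition.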 In kind it is functional. (In a reporter assay the amount or activity of a reporter protein is the signal.)
A short description of assay [17]: blockade of melanocortin 4 receptor signaling – cell-based, plate reader, cherry pick, counter-screen for LGR2 antagonist project, dose response (AID 743444).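 Further: transfected HEK 293 cells stimulated with alpha-MSH peptide; potency of inhibitors of the alpha-MSH evoked signal.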 The format is functional.

For orientation: AC50 means the concentration giving half of the maximal activity seen. Usually IC50 stands for the midpoint of a concentration-inhibition curve.

The source made the active and inactive calls. Where only a bound is given, the exact number is not on record here.

T6 sequence (P07237 whole entry): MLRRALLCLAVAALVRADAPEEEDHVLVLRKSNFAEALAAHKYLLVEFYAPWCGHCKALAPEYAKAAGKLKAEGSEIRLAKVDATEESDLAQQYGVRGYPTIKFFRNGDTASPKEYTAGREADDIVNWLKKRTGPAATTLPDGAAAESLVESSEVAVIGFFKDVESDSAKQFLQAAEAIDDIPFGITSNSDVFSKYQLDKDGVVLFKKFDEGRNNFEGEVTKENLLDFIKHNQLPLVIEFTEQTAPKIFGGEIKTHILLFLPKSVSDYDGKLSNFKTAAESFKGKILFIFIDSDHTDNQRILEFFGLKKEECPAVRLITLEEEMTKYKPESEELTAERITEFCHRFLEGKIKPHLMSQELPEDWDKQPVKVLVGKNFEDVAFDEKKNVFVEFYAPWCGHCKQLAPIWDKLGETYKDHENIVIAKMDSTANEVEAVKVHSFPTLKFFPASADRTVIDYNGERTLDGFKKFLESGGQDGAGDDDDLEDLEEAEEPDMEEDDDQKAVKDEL
Sequence of DNA repair and recombination protein RAD54-like (Q92698 whole entry): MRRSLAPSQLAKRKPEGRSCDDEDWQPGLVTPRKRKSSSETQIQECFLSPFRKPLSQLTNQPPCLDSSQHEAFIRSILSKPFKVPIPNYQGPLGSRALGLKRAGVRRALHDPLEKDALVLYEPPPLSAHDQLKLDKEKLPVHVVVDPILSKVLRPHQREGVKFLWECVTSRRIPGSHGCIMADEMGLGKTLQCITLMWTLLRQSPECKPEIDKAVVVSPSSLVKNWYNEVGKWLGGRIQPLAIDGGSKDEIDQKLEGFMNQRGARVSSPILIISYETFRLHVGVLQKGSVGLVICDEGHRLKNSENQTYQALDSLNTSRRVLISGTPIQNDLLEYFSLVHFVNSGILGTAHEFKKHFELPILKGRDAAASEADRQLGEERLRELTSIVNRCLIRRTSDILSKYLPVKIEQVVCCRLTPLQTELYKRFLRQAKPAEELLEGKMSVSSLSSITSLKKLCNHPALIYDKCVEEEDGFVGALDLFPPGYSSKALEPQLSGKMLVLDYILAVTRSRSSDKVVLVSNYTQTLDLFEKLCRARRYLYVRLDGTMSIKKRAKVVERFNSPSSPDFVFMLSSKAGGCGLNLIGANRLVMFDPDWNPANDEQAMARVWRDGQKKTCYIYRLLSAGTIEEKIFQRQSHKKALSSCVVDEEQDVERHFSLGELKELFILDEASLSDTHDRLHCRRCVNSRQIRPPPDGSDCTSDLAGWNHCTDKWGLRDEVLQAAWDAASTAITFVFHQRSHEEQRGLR
Sequence of Albumin (P02769 whole entry): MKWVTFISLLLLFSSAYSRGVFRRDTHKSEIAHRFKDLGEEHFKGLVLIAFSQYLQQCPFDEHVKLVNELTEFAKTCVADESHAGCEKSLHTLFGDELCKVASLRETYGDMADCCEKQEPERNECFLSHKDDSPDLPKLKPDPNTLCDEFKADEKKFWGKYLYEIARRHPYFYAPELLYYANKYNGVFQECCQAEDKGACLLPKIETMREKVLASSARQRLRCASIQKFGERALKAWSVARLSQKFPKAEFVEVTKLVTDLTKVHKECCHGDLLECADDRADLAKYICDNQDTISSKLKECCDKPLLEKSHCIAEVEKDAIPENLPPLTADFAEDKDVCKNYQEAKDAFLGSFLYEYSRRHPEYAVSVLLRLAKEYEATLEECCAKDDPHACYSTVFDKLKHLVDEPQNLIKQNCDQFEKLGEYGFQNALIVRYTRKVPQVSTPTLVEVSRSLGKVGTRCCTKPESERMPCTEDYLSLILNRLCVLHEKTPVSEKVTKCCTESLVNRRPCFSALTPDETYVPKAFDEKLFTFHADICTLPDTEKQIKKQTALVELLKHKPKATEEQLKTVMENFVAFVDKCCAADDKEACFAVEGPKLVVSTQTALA
Sequence of Mitochondrial peptide methionine sulfoxide reductase (P54149 whole entry): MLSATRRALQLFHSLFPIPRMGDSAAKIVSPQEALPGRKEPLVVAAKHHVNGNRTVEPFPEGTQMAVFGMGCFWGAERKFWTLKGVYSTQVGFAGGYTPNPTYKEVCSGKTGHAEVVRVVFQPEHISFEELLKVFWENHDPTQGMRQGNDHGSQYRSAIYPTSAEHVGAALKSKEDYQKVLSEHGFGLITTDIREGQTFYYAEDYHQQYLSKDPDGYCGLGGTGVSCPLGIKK

On to `Cc1cc(C(C)(C)C)cc(S(=O)(=O)NCCc2ccncc2)c1C`, for which the AC50 in assay [1] was 0.598 µM (active).
`CCOC(=O)c1cnc2c(ccc3ccccc32)c1NCCN(C)C`: the half-maximal activity concentration (AC50) in assay [2] was 55.9 µM (active); in assay [3] it was 9.73 µM (active); in assay [4], 6.71 µM (active).
`Cc1nc2ccccc2n1CC(=O)c1ccc(O)c(O)c1`: the values for the half-inhibitory concentration (IC50) (in [5]; on Albumin; in assay [6]) were 20.2 µM (active), > 94 µM (inactive) and > 96.6 µM (inactive), respectively.
As for `CCOc1cc2c3c(c1)C1(C(=O)N3C(C)(C)CC2C)C(C#N)=C(N)N2C(=C1C#N)Nc1ccccc12` (stereo not drawn), in assay [7], the CC50 is > 40 µM (active). Further, the AC50 in assay [8] was 10 µM (active); in [9], 2.23 µM (active).
For the compound `CCOC(=O)C/C(C)=N\Nc1ccc([N+](=O)[O-])cc1[N+](=O)[O-]`, the half-inhibitory concentration (IC50) in [10] was 23 µM (not active); in assay [11] it was 155 µM (inactive).
On to `O=C(Nc1ccccc1N1CCCC1)c1cc(Cl)ccc1Cl`, for which the figures for the concentration at half-maximal activity (AC50) in assay [12] and in [13] were < 0.009 µM (active) and 0.009 µM (active), respectively.
Take `Cc1ccc2nc(-c3ccccc3)nn2c1`: the AC50 in assay [14] was > 52 µM (inactive); in [15], > 52 µM (inactive); in assay [16] it was 2.48 µM (active); in [17], 3.56 µM (active).
